# Molecular target: Cannabinoid receptor 1 (Taeniopygia guttata, UniProt P56971)
# Sequence (P56971 whole entry): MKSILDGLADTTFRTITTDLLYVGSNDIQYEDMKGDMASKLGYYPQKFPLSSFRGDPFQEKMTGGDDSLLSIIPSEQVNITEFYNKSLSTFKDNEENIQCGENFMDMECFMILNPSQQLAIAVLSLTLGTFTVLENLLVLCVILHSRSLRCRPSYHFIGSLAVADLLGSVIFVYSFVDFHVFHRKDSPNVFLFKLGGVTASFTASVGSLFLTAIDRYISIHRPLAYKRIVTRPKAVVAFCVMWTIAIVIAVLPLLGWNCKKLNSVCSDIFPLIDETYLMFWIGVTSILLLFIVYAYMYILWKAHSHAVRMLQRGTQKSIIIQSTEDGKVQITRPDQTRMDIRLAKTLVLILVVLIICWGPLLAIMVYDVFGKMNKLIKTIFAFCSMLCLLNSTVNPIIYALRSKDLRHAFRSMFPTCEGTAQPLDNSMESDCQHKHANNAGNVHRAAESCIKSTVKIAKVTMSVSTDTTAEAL
row,Compound,Ki [nM]
1,CCCCC/C=C\C/C=C\C/C=C\C/C=C\CCCC(=O)NC(C)CO (configuration not stated),166
2,CCCCC/C=C\C/C=C\C/C=C\C/C=C\CCCCCC(=O)NCCO,2790
3,"CCCCCCC(C)(C)c1cc(O)c2c(c1)OC(C)(C)[C@@H]1CC=C(CO)CC21 (stereo partly drawn) [(R)-3-(1,1-Dimethyl-heptyl)-9-hydroxymethyl-6,6-dimethyl-6a,7,10,10a-tetrahydro-6H-benzo[c]chromen-1-ol]",2.32
4,"CCCCCCC(C)(C)c1ccc([C@H]2C[C@@H](O)CC[C@@H]2CCCO)c(O)c1 [CP-56667 [(+)-AC],XV]",5.92
5,CC(=O)Oc1cc(OC(C)CCCc2ccccc2)cc2c1C1CC(O)CCC1C(C)N2 (configuration not stated) [NSC_107822],8.24
6,Cc1c(C(=O)NN2CCCCC2)nn(-c2ccc(Cl)cc2Cl)c1-c1ccc(Cl)cc1 [SR141716],89.3
7,Cc1c(C(=O)c2cccc3ccccc23)c2cccc3c2n1[C@H](CN1CCOCC1)CO3 [WIN55212-2],63.3
